Source: patent US10570168B2, “2′ and/or 5′ amino-acid ester phosphoramidate 3′-deoxy adenosine derivatives as anti- cancer compounds” (NuCana plc, priority 2014, dated 2020)
Where two headings read alike, the source gives them in different places. Each block holds one compound with its values, some of them ahead of it.

Legend:
Test in all cases: Solid tumour and haematological malignancy assay (CellTiterGlo)
Format in all cases: cell-based
CCRFCEM = conditions: Homo sapiens, CCRF-CEM; for IC50: read-out: IC50 (absolute IC50); for Emax: read-out: MI %
How it was run: (§1)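 Cell viability by CellTiterGlo after 72 h compound exposure under standard growth conditions, in duplicate, with 0.5% final DMSO.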

HEL92.1.7 = conditions: Homo sapiens; for IC50: read-out: IC50 (absolute IC50); for Emax: read-out: MI %
How it was run: as §1

HL-60 = conditions: Homo sapiens; for IC50: read-out: IC50 (absolute IC50); for Emax: read-out: MI %
How it was run: as §1

HT29 = conditions: Homo sapiens; for IC50: read-out: IC50 (absolute IC50); for Emax: read-out: MI %
How it was run: as §1

HepG2 = conditions: Homo sapiens; for IC50: read-out: IC50 (absolute IC50); for Emax: read-out: MI %
How it was run: as §1

K562 = conditions: Homo sapiens; for IC50: read-out: IC50 (absolute IC50); for Emax: read-out: MI %
How it was run: as §1

KG-1 = conditions: Homo sapiens; for IC50: read-out: IC50 (absolute IC50); for Emax: read-out: MI %
How it was run: as §1

MCF7 = conditions: Homo sapiens; for IC50: read-out: IC50 (absolute IC50); for Emax: read-out: MI %
How it was run: as §1

MiaPaCa-2 = conditions: Homo sapiens; for IC50: read-out: IC50 (absolute IC50); for Emax: read-out: MI %
How it was run: as §1

BxPC-3 = conditions: Homo sapiens, read-out: IC50 (absolute IC50)
How it was run: (§2)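 Cells were treated in duplicate with a 9-point, 3.16-fold dilution series for about 72 h under standard growth conditions. Final concentrations ran from […] to 19.9 nM, with 0.5% DMSO. Viability was read by CellTiter-Glo luminescence.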

HS445 = conditions: for IC50: read-out: IC50 (absolute IC50); for Emax: read-out: MI %
How it was run: as §2

Jurkat = conditions: Homo sapiens, read-out: IC50 (absolute IC50)
How it was run: as §2

MOLT-4 = conditions: Homo sapiens; for IC50: read-out: IC50 (absolute IC50); for Emax: read-out: MI %
How it was run: as §2

MV4-11 = conditions: Homo sapiens; for IC50: read-out: IC50 (absolute IC50); for Emax: read-out: MI %
How it was run: as §2

NCI-H929 = conditions: Homo sapiens; for IC50: read-out: IC50 (absolute IC50); for Emax: read-out: MI %
How it was run: as §2

RL = conditions: Homo sapiens; for IC50: read-out: IC50 (absolute IC50); for Emax: read-out: MI %
How it was run: as §2

RPMI-8226 = conditions: Homo sapiens; for IC50: read-out: IC50 (absolute IC50); for Emax: read-out: MI %
How it was run: as §2

SW620 = conditions: Homo sapiens; for IC50: read-out: IC50 (absolute IC50); for Emax: read-out: MI %
How it was run: as §2

THP-1 = conditions: Homo sapiens; for IC50: read-out: IC50 (absolute IC50); for Emax: read-out: MI %
How it was run: as §2

Z138 = conditions: Homo sapiens; for IC50: read-out: IC50 (absolute IC50); for Emax: read-out: MI %
How it was run: as §2

Compound: Nc1ncnc2c1ncn2[C@@H]1O[C@H](COP(=O)(NCC(=O)OCc2ccccc2)Oc2ccccc2)C[C@H]1O (stereo partly drawn) [C, Benzyl 2-(((((2S,4R,5R)-5-(6-amino-9H-purin-9-yl)-4-hydroxytetrahydrofuran-2-yl)methoxy)(phenoxy)phosphoryl)amino)acetate]
IC50 (CCRFCEM; 72 h): 5 to 15 µM
Emax (CCRFCEM; 72 h): 100%
IC50 (HEL92.1.7; HEL 92.1.7, 72 h): 0.1 to 5 µM
Emax (HEL92.1.7; HEL 92.1.7, 72 h): 99%
IC50 (HL-60; HL-60, 72 h): 5 to 15 µM
Emax (HL-60; HL-60, 72 h): 100%
IC50 (HT29; HT-29, 72 h): 15 to 100 µM
Emax (HT29; HT-29, 72 h): 99%
IC50 (HepG2; HepG2, 72 h): 15 to 100 µM
Emax (HepG2; HepG2, 72 h): 99%
IC50 (K562; K562, 72 h): 5 to 15 µM
Emax (K562; K562, 72 h): 100%
IC50 (KG-1; KG-1, 72 h): 15 to 100 µM
Emax (KG-1; KG-1, 72 h): 102%
IC50 (MCF7; MCF7, 72 h): 0.1 to 5 µM
Emax (MCF7; MCF7, 72 h): 102%
IC50 (MiaPaCa-2; MIA PaCa-2, 72 h): 5 to 15 µM
Emax (MiaPaCa-2; MIA PaCa-2, 72 h): 106%
IC50 (BxPC-3; BXPC-3, 72 h): 15 to 100 µM
IC50 (HS445; Hs 445, 72 h): 15 to 100 µM
Emax (HS445; Hs 445, 72 h): 102%
IC50 (Jurkat; 72 h): 5 to 15 µM
IC50 (MOLT-4; MOLT-4, 72 h): 0.1 to 5 µM
Emax (MOLT-4; MOLT-4, 72 h): 92%
IC50 (MV4-11; MV4-11, 72 h): 5 to 15 µM
Emax (MV4-11; MV4-11, 72 h): 106%
IC50 (NCI-H929; NCI-H929, 72 h): 5 to 15 µM
Emax (NCI-H929; NCI-H929, 72 h): 104%
IC50 (RL; 72 h): 5 to 15 µM
Emax (RL; 72 h): 100%
IC50 (RPMI-8226; RPMI-8226, 72 h): 15 to 100 µM
Emax (RPMI-8226; RPMI-8226, 72 h): 103%
IC50 (SW620; SW-620, 72 h): 15 to 100 µM
Emax (SW620; SW-620, 72 h): 100%
IC50 (THP-1; THP-1, 72 h): 15 to 100 µM
Emax (THP-1; THP-1, 72 h): 99%
IC50 (Z138; Z-138, 72 h): 5 to 15 µM
Emax (Z138; Z-138, 72 h): 100%

IC50 (CCRFCEM; CCRFCEM, 72 hr): > 100 µM
IC50 (HEL92.1.7; HEL 92.1.7, HEL92.1.7, 72 hr): 15 to 100 µM
IC50 (HL-60; HL-60, 72 hr): > 100 µM
IC50 (HT29; HT-29, HT29, 72 hr): > 100 µM
IC50 (HepG2; HepG2, 72 hr): > 100 µM
IC50 (K562; K562, 72 hr): 15 to 100 µM
IC50 (KG-1; KG-1, 72 hr): > 100 µM
IC50 (MCF7; MCF7, 72 hr): > 100 µM
IC50 (MiaPaCa-2; MIA PaCa-2, MiaPaCa-2, 72 hr): > 100 µM
IC50 (BxPC-3; BxPC-3, 72 hr): > 100 µM
IC50 (HS445; Hs 445, HS445, 72 hr): > 100 µM
IC50 (Jurkat; 72 hr): > 100 µM
IC50 (MOLT-4; MOLT-4, 72 hr): > 100 µM
IC50 (MV4-11; MV4-11, 72 hr): > 100 µM
IC50 (NCI-H929; NCI-H929, 72 hr): > 100 µM
IC50 (RL; 72 hr): > 100 µM
IC50 (RPMI-8226; RPMI-8226, 72 hr): > 100 µM
IC50 (SW620; SW-620, SW620, 72 hr): > 100 µM
IC50 (THP-1; THP-1, 72 hr): > 100 µM
IC50 (Z138; Z-138, Z138, 72 hr): 5 to 15 µM
Compound: Nc1ncnc2c1ncn2[C@@H]1O[C@H](CO)C[C@H]1O [Cordycepin, 3′-deoxyadenosine, reference compound]
Emax (CCRFCEM; CCRFCEM, 72 hr): 41%
Emax (HEL92.1.7; HEL 92.1.7, HEL92.1.7, 72 hr): 88%
Emax (HL-60; HL-60, 72 hr): 61%
Emax (HT29; HT-29, HT29, 72 hr): 44%
Emax (HepG2; HepG2, 72 hr): 13%
Emax (K562; K562, 72 hr): 78%
Emax (KG-1; KG-1, 72 hr): 69%
Emax (MCF7; MCF7, 72 hr): 77%
Emax (MiaPaCa-2; MIA PaCa-2, MiaPaCa-2, 72 hr): 35%
Emax (HS445; Hs 445, HS445, 72 hr): 2%
Emax (MOLT-4; MOLT-4, 72 hr): 46%
Emax (MV4-11; MV4-11, 72 hr): 1%
Emax (NCI-H929; NCI-H929, 72 hr): 24%
Emax (RL; 72 hr): 17%
Emax (RPMI-8226; RPMI-8226, 72 hr): 1%
Emax (SW620; SW-620, SW620, 72 hr): 10%
Emax (THP-1; THP-1, 72 hr): -3%
Emax (Z138; Z-138, Z138, 72 hr): 95%

Compound: C[C@H](NP(=O)(OC[C@@H]1CC(O)[C@H](n2cnc3c(N)ncnc32)O1)Oc1ccccc1)C(=O)OCc1ccccc1 (stereo partly drawn) [Compound A, 3′-deoxyadenosine-5′-O-[phenyl(benzyloxy-L-alaninyl)] phosphate]
IC50 (CCRFCEM; 72 h): 0.1 to 5 µM
Emax (CCRFCEM; 72 h): 100%
IC50 (HEL92.1.7; HEL 92.1.7, 72 h): 5 to 15 µM
Emax (HEL92.1.7; HEL 92.1.7, 72 h): 100%
IC50 (HL-60; HL-60, 72 h): 5 to 15 µM
Emax (HL-60; HL-60, 72 h): 99%
IC50 (HT29; HT-29, 72 h): 5 to 15 µM
Emax (HT29; HT-29, 72 h): 93%
IC50 (HepG2; HepG2, 72 h): 15 to 100 µM
Emax (HepG2; HepG2, 72 h): 75%
IC50 (K562; K562, 72 h): 0.1 to 5 µM
Emax (K562; K562, 72 h): 96%
IC50 (KG-1; KG-1, 72 h): 15 to 100 µM
Emax (KG-1; KG-1, 72 h): 100%
IC50 (MCF7; MCF7, 72 h): 0.1 to 5 µM
Emax (MCF7; MCF7, 72 h): 99%
IC50 (MiaPaCa-2; MIA PaCa-2, 72 h): 5 to 15 µM
Emax (MiaPaCa-2; MIA PaCa-2, 72 h): 96%
IC50 (BxPC-3; BXPC-3, 72 h): 15 to 100 µM
IC50 (HS445; Hs 445, 72 h): 15 to 100 µM
Emax (HS445; Hs 445, 72 h): 98%
IC50 (Jurkat; 72 h): 0.1 to 5 µM
IC50 (MOLT-4; MOLT-4, 72 h): 0.1 to 5 µM
Emax (MOLT-4; MOLT-4, 72 h): 98%
IC50 (MV4-11; MV4-11, 72 h): 0.1 to 5 µM
Emax (MV4-11; MV4-11, 72 h): 99%
IC50 (NCI-H929; NCI-H929, 72 h): 5 to 15 µM
Emax (NCI-H929; NCI-H929, 72 h): 100%
IC50 (RL; 72 h): 0.1 to 5 µM
Emax (RL; 72 h): 93%
IC50 (RPMI-8226; RPMI-8226, 72 h): 5 to 15 µM
Emax (RPMI-8226; RPMI-8226, 72 h): 96%
IC50 (SW620; SW-620, 72 h): 15 to 100 µM
Emax (SW620; SW-620, 72 h): 85%
IC50 (THP-1; THP-1, 72 h): 15 to 100 µM
Emax (THP-1; THP-1, 72 h): 74%
IC50 (Z138; Z-138, 72 h): 15 to 100 µM
Emax (Z138; Z-138, 72 h): 95%

Compound: CCOC(=O)CCc1ccccc1OP(=O)(N[C@@H](C)C(=O)OCc1ccccc1)OC[C@@H]1C[C@@H](O)[C@H](n2cnc3c(N)ncnc32)O1 (stereo partly drawn) [F, (2S)-benzyl 2-(((((2S,4R,5R)-5-(6-amino-9H-purin-9-yl)-4-hydroxytetrahydrofuran-2-yl)methoxy)(2-(3-ethoxy-3-oxopropyl)phenoxy)phosphoryl)amino)propanoate]
IC50 (CCRFCEM; 72 h): 0.1 to 5 µM
IC50 (HEL92.1.7; HEL 92.1.7, 72 h): 5 to 15 µM
IC50 (HL-60; HL-60, 72 h): 5 to 15 µM
IC50 (HT29; HT-29, 72 h): 15 to 100 µM
IC50 (HepG2; HepG2, 72 h): 15 to 100 µM
IC50 (K562; K562, 72 h): 0.1 to 5 µM
IC50 (KG-1; KG-1, 72 h): 15 to 100 µM
IC50 (MCF7; MCF7, 72 h): 5 to 15 µM
IC50 (MiaPaCa-2; MIA PaCa-2, 72 h): 5 to 15 µM
IC50 (BxPC-3; BXPC-3, 72 h): 15 to 100 µM
IC50 (HS445; Hs 445, 72 h): 15 to 100 µM
IC50 (Jurkat; 72 h): 0.1 to 5 µM
IC50 (MOLT-4; MOLT-4, 72 h): 0.1 to 5 µM
IC50 (MV4-11; MV4-11, 72 h): 0.1 to 5 µM
Emax (MV4-11; MV4-11, 72 h): 100%
IC50 (NCI-H929; NCI-H929, 72 h): 5 to 15 µM
Emax (NCI-H929; NCI-H929, 72 h): 100%
IC50 (RL; 72 h): 5 to 15 µM
Emax (RL; 72 h): 90%
IC50 (RPMI-8226; RPMI-8226, 72 h): 15 to 100 µM
IC50 (SW620; SW-620, 72 h): 15 to 100 µM
Emax (SW620; SW-620, 72 h): 90%
IC50 (THP-1; THP-1, 72 h): 15 to 100 µM
Emax (THP-1; THP-1, 72 h): 100%
IC50 (Z138; Z-138, 72 h): 15 to 100 µM
